# Activity calls are given as the source filed them. The calls are words filed in the database; no cut-off is given here.
# Legend:
# [1] = Metabolic stability in human liver microsomes assessed as clearance at 0.5 uM by LC-MS analysis; format: ADME, Microsome
# HCT-116 [2] = experiment: Induction of P62 to RNF168 protein-protein interaction in human HCT-116 cells lysates by co-immunoprecipitation assay; format: subcellular
# A549 = experiment: Cytotoxicity against human A549 cells assessed as reduction in cell viability incubated for 72 hrs by MTS assay; format: functional, cell-based; settings: A549, 72 h
# [3] = biological target: T1, Glucocorticoid receptor (Homo sapiens) (UniProt P04150); experiment: Inhibition of GR (unknown origin) at 10 uM
# T1 sequence (whole entry): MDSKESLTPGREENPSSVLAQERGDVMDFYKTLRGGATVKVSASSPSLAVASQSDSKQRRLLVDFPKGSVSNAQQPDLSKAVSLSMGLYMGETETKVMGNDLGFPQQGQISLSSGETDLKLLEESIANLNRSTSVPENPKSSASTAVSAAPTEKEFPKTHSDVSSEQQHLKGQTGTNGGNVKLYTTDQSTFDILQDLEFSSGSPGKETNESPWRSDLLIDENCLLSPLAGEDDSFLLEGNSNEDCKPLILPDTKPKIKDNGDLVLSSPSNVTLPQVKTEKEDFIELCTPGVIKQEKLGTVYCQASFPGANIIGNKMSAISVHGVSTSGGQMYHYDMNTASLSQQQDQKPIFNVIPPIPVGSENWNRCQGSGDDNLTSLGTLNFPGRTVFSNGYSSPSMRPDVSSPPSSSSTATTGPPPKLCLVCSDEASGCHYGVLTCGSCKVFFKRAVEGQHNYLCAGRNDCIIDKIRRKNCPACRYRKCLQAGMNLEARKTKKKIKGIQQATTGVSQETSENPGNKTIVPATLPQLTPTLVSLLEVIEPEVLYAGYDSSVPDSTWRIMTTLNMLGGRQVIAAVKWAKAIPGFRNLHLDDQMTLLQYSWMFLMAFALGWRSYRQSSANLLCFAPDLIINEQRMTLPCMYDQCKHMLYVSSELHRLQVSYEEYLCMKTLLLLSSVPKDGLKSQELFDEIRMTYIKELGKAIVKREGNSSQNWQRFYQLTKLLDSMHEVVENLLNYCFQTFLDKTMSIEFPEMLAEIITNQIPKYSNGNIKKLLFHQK
# [4] = Cmax in BALB/c mouse at 5 mg/kg; format: ADME, organism-based; parameters: dose 5 mg/kg; settings: in vivo
# [5] = Toxicity in BALB/c nude mouse assessed as changes in body weight at 5 to 10 mg/kg, ip administered every 3 days upto 22 days; format: organism-based; settings: in vivo, 528 h, dose 5-10 mg/kg, time < 22 day
# HepG2 = experiment: Cytotoxicity against human HepG2 cells assessed as reduction in cell viability incubated for 72 hrs by MTS assay; format: functional, cell-based; settings: HepG2, 72 h
# HCT-116 [6] = experiment: Induction of cell cycle arrest in human HCT-116 cells assessed as accumulation at G0/G1 phase at 2 uM after 24 hrs by propidium iodide-staining based flow cytometry (reference value: 58.01 +/- 1.77%); format: functional
# [7] = Cytotoxicity against human MCF-10A cells assessed as reduction in cell viability incubated for 72 hrs by MTS assay; format: toxicity, cell-based
# HCT-116 [8] = experiment: Induction of cell cycle arrest in human HCT-116 cells assessed as accumulation at S phase at 2 uM after 24 hrs by propidium iodide-staining based flow cytometry (reference value: 17.17 +/- 0.18%); format: functional
# A-375 = experiment: Cytotoxicity against human A-375 cells assessed as reduction in cell viability incubated for 72 hrs by MTS assay; format: functional, cell-based; settings: A-375, 72 h
# HCT-116 [9] = experiment: Cytotoxicity against human HCT-116 cells assessed as reduction in cell viability incubated for 72 hrs by MTS assay; format: functional, cell-based; settings: HCT-116, 72 h
# HCT-116 [10] = experiment: Antitumor activity against human HCT-116 cells xenografted in ip dosed BALB/c nude mouse assessed as tumor growth inhibition; format: functional, organism-based; settings: dose 5.0 mg/kg, DDE = dose-dependent effect
# U2OS = experiment: Induction of x-ray sensitivity in human U2OS cells; format: functional, cell-based
# Bacteria = experiment: Induction of bacteria His-tagged P62 to GST-tagged RNF168 protein-protein interaction by co-immunoprecipitation assay
# [11] = Cmax in BALB/c mouse at 20 mg/kg; format: ADME, organism-based; parameters: dose 20 mg/kg; settings: in vivo
# [12] = Toxicity in BALB/c mouse assessed as diarrhea 50 mg/kg, ip after 7 days; format: organism-based; settings: in vivo, 168 h, time 7 day
# MGC-803 = experiment: Cytotoxicity against human MGC-803 cells assessed as reduction in cell viability incubated for 72 hrs by MTS assay; format: functional, cell-based; settings: MGC-803, 72 h
# HCT-116 [13] = experiment: Induction of cell cycle arrest in human HCT-116 cells assessed as accumulation at S phase at 5 uM after 24 hrs by propidium iodide-staining based flow cytometry (reference value: 17.17 +/- 0.18%); format: functional
# HCT-116 [14] = experiment: Antitumor activity against human HCT-116 cells xenografted with BALB/c nude mouse assessed as tumor growth inhibition at 5 to 10 mg/kg, ip administered every 3 days upto 22 days by H and E staining based assay; format: functional, organism-based; settings: dose 5-10 mg/kg, time <= 22.0 day
# [15] = Toxicity in BALB/c mouse assessed as animal death at 100 mg/kg, ip after 7 days; format: organism-based; settings: in vivo, 168 h, time 7 day
# [16] = Toxicity in BALB/c mouse assessed as diarrhea at 100 mg/kg, ip after 7 days; format: organism-based; settings: in vivo, 168 h, time 7 day
compound,measurement,setting,value
COc1cc(-n2cc(-c3ccc4nc(N)nc(N)c4c3)nn2)cc(OC)c1OC,CLH,[1],1.87 mL/min
same,Activity,HCT-116 [2],Active
same,IC50,A549,1180 nM
same,inhibition,[3],Active
same,Cmax,[4],26.1 ng/mL
same,Activity,[5],Non-Toxic
same,IC50,HepG2,19600 nM
same,Activity,HCT-116 [6],52.1%
same,IC50 at 72 h,[7],6980 nM
same,Activity,HCT-116 [8],21.51%
same,IC50,A-375,1930 nM
same,IC50,HCT-116 [9],360 nM
same,Activity,HCT-116 [10],Dde
same,Activity,U2OS,Active
same,Activity,Bacteria,Active
same,Cmax,[11],52.2 ng/mL
same,Activity,[12],Toxic
same,IC50,MGC-803,1880 nM
same,Activity,HCT-116 [13],18.77%
same,Activity,HCT-116 [14],Active
same,Activity,[15],Toxic
same,Activity,[16],Toxic
